Data reported in PubChem BioAssay AID1745844 (Carcinogenic Potency Database (CPDB), 2022).
Active and inactive are the calls of the source. The rule behind the calls is not given here.

System: rodent lifetime carcinogenesis bioassay, tumor incidence TD50
Assay: chronic cancer bioassays in animals – CPDB, compiled studies (AID 1745844)
[1] = mouse, strain B6AKF1, females, oral dosing, site: any site (literature study), lesion: several types, types named in the paper, dosed 76 weeks, study length 76 weeks
[2] = mouse, strain B6AKF1, males, oral dosing, site: any site (literature study), lesion: several types, types named in the paper, dosed 76 weeks, study length 76 weeks
[3] = mouse, strain B6AKF1, males, oral dosing, site: liver, lesion: hepatoma, dosed 76 weeks, study length 76 weeks
[4] = mouse, strain B6AKF1, males, oral dosing, site: lung, lesion: adenoma, dosed 76 weeks, study length 76 weeks
[5] = mouse, strain B6C3F1, females, oral dosing, site: any site (literature study), lesion: several types, types named in the paper, dosed 76 weeks, study length 76 weeks
[6] = mouse, strain B6C3F1, females, oral dosing, site: liver, lesion: hepatoma, dosed 76 weeks, study length 76 weeks
[7] = mouse, strain B6C3F1, males, oral dosing, site: any site (literature study), lesion: several types, types named in the paper, dosed 76 weeks, study length 76 weeks
[8] = mouse, strain B6C3F1, males, oral dosing, site: liver, lesion: hepatoma, dosed 76 weeks, study length 76 weeks

Q: What does the source list for `O=C1C2CC=CCC2C(=O)N1SC(Cl)(Cl)Cl` (stereo not drawn)?
A: carcinogen call [1]: negative (inactive); carcinogen call (mouse, strain B6AKF1, females, oral dosing, site: liver, lesion: hepatoma, dosed 76 weeks, study length 76 weeks): negative (inactive); carcinogen call (mouse, strain B6AKF1, females, oral dosing, site: lung, lesion: adenoma, dosed 76 weeks, study length 76 weeks): negative (inactive); TD50 [2]: 161 mg/kg/day (inactive); TD50 [3]: 195 mg/kg/day (inactive); TD50 [4]: 3620 mg/kg/day (inactive); carcinogen call (mouse, strain B6C3F1, females, in feed, site: any site (literature study), lesion: several types, types named in the paper, dosed 80 weeks, study length 91 weeks): negative (inactive); TD50 (mouse, strain B6C3F1, females, in feed, site: duodenum, lesion: adenocarcinoma in adenomatous polyp, dosed 80 weeks, study length 90 weeks): 21600 mg/kg/day; TD50 [5]: 244 mg/kg/day (inactive); carcinogen call [6]: negative (inactive); carcinogen call (mouse, strain B6C3F1, females, oral dosing, site: lung, lesion: several types, types named in the paper, dosed 76 weeks, study length 76 weeks): negative (inactive); carcinogen call (mouse, strain B6C3F1, males, in feed, site: any site (literature study), lesion: several types, types named in the paper, dosed 80 weeks, study length 91 weeks): negative (inactive); TD50 (mouse, strain B6C3F1, males, in feed, site: duodenum, lesion: adenocarcinoma in adenomatous polyp, dosed 80 weeks, study length 90 weeks): 15100 mg/kg/day; TD50 (mouse, strain B6C3F1, males, in feed, site: duodenum, lesion: adenomatous polyp, NOS or adenocarcinoma in adenomatous polyp, dosed 80 weeks, study length 90 weeks): 7390 mg/kg/day; TD50 [7]: 42.5 mg/kg/day (inactive); TD50 [8]: 86.1 mg/kg/day (inactive); TD50 (mouse, strain B6C3F1, males, oral dosing, site: lung, lesion: adenoma, dosed 76 weeks, study length 76 weeks): 187 mg/kg/day (inactive); TD50 (mouse, strain Charles River CD1, females, in feed, site: small intestine, lesion: adenoma, dosed 113 weeks, study length 113 weeks): 13300 mg/kg/day; TD50 (mouse, strain Charles River CD1, females, in feed, site: small intestine, lesion: carcinoma, dosed 113 weeks, study length 113 weeks): 2110 mg/kg/day; TD50 (mouse, strain Charles River CD1, females, in feed, site: small intestine, lesion: several types, types named in the paper, dosed 113 weeks, study length 113 weeks): 1740 mg/kg/day; TD50 (mouse, strain Charles River CD1, males, in feed, site: small intestine, lesion: adenoma, dosed 113 weeks, study length 113 weeks): 8280 mg/kg/day; TD50 (mouse, strain Charles River CD1, males, in feed, site: small intestine, lesion: carcinoma, dosed 113 weeks, study length 113 weeks): 3500 mg/kg/day; TD50 (mouse, strain Charles River CD1, males, in feed, site: small intestine, lesion: several types, types named in the paper, dosed 113 weeks, study length 113 weeks): 2690 mg/kg/day; TD50 (rat, strain Charles River CD (Sprague-Dawley), females, in feed, site: kidney, lesion: several types, types named in the paper, dosed 104 weeks, study length 104 weeks): 17900 mg/kg/day; TD50 (rat, strain Charles River CD (Sprague-Dawley), females, in feed, site: kidney, lesion: tubule carcinoma, dosed 104 weeks, study length 104 weeks): 17900 mg/kg/day; TD50 (rat, strain Charles River CD (Sprague-Dawley), males, in feed, site: kidney, lesion: several types, types named in the paper, dosed 104 weeks, study length 104 weeks): 2690 mg/kg/day; TD50 (rat, strain Charles River CD (Sprague-Dawley), males, in feed, site: kidney, lesion: tubule adenoma, dosed 104 weeks, study length 104 weeks): 3810 mg/kg/day; TD50 (rat, strain Charles River CD (Sprague-Dawley), males, in feed, site: kidney, lesion: tubule carcinoma, dosed 104 weeks, study length 104 weeks): 11500 mg/kg/day; TD50 (rat, strain Osborne-Mendel, females, in feed, site: adrenal gland, lesion: cortical adenoma + cortical carcinoma, dosed 80 weeks, study length 109 weeks): 253 mg/kg/day (inactive); carcinogen call (rat, strain Osborne-Mendel, females, in feed, site: any site (literature study), lesion: several types, types named in the paper, dosed 80 weeks, study length 113 weeks): negative (inactive); TD50 (rat, strain Osborne-Mendel, males, in feed, site: any site (literature study), lesion: several types, types named in the paper, dosed 80 weeks, study length 113 weeks): 4780 mg/kg/day (inactive); TD50 (rat, strain Wistar, females, in feed, site: uterus, lesion: sarcoma, dosed 130 weeks, study length 130 weeks): 1700 mg/kg/day

Q: With `O=NN1CCCC[C@H]1c1cccnc1` as the molecule, how does the TD50 (rat, strain Chester Beatty albino, females, in drinking water, site: esophagus, lesion: benign tumor, dosed 73 weeks, study length 73 weeks) read?
A: 17.7 mg/kg/day

Q: And the TD50 (rat, strain Chester Beatty albino, females, in drinking water, site: esophagus, lesion: several types, types named in the paper, dosed 73 weeks, study length 73 weeks)?
A: 12.9 mg/kg/day

Q: And the TD50 (rat, strain Chester Beatty albino, females, in drinking water, site: esophagus, lesion: squamous-cell carcinoma, dosed 73 weeks, study length 73 weeks)?
A: 413 mg/kg/day

Q: What about the TD50 (rat, strain Chester Beatty albino, males, in drinking water, site: esophagus, lesion: benign tumor, dosed 73 weeks, study length 73 weeks) of the same molecule?
A: 28.1 mg/kg/day

Q: What about the TD50 (rat, strain Chester Beatty albino, males, in drinking water, site: esophagus, lesion: several types, types named in the paper, dosed 73 weeks, study length 73 weeks) of the same molecule?
A: 11 mg/kg/day

Q: And the TD50 (rat, strain Chester Beatty albino, males, in drinking water, site: esophagus, lesion: squamous-cell carcinoma, dosed 73 weeks, study length 73 weeks)?
A: 86 mg/kg/day

Q: How did the carcinogen call (hamster, strain Syrian Golden, females, by gavage, site: any site (literature study), lesion: several types, types named in the paper, dosed 84 weeks, study length 84 weeks) turn out when `c1ccc(Nc2ccc3ccccc3c2)cc1` was run?
A: negative (inactive)

Q: What about the carcinogen call (hamster, strain Syrian Golden, males, by gavage, site: any site (literature study), lesion: several types, types named in the paper, dosed 84 weeks, study length 84 weeks) of the same molecule?
A: negative (inactive)

Q: What about the TD50 [1] of the same molecule?
A: 1080 mg/kg/day

Q: And the TD50 [2]?
A: 186 mg/kg/day

Q: What about the TD50 [3] of the same molecule?
A: 460 mg/kg/day

Q: What about the TD50 [4] of the same molecule?
A: 431 mg/kg/day

Q: And the TD50 (mouse, strain B6C3F1, females, in feed, site: kidney, lesion: tubular-cell adenoma + tubular-cell adenocarcinoma, dosed 103 weeks, study length 104 weeks)?
A: 10800 mg/kg/day

Q: And the TD50 (mouse, strain B6C3F1, females, in feed, site: liver, lesion: hepatocellular adenoma + hepatocellular carcinoma + neoplastic nodule, dosed 103 weeks, study length 104 weeks)?
A: 5630 mg/kg/day

Q: What about the TD50 [5] of the same molecule?
A: 1080 mg/kg/day

Q: What about the TD50 [6] of the same molecule?
A: 1080 mg/kg/day

Q: What about the TD50 (mouse, strain B6C3F1, males, in feed, site: any site (literature study), lesion: several types, types named in the paper, dosed 103 weeks, study length 104 weeks) of the same molecule?
A: 4510 mg/kg/day

Q: And the TD50 (mouse, strain B6C3F1, males, in feed, site: liver, lesion: hepatocellular adenoma + hepatocellular carcinoma + neoplastic nodule, dosed 103 weeks, study length 104 weeks)?
A: 1350 mg/kg/day

Q: And the TD50 (mouse, strain B6C3F1, males, in feed, site: subcutaneous tissue, lesion: fibrosarcoma + neurofibrosarcoma + sarcoma, NOS, dosed 103 weeks, study length 104 weeks)?
A: 2380 mg/kg/day (inactive)

Q: And the TD50 [7]?
A: 108 mg/kg/day

Q: What about the TD50 [8] of the same molecule?
A: 165 mg/kg/day

Q: What about the carcinogen call (rat, strain Fischer 344, females, in feed, site: any site (literature study), lesion: several types, types named in the paper, dosed 103 weeks, study length 104 weeks) of the same molecule?
A: negative (inactive)

Q: What about the carcinogen call (rat, strain Fischer 344, males, in feed, site: any site (literature study), lesion: several types, types named in the paper, dosed 103 weeks, study length 104 weeks) of the same molecule?
A: negative (inactive)

Q: And the carcinogen call (rat, strain Sprague-Dawley, females, by gavage, site: any site (literature study), lesion: several types, types named in the paper, dosed 136 weeks, study length 136 weeks)?
A: negative (inactive)

Q: And the carcinogen call (rat, strain Sprague-Dawley, males, by gavage, site: any site (literature study), lesion: several types, types named in the paper, dosed 160 weeks, study length 160 weeks)?
A: negative (inactive)

Q: Which results are given for `CN1C(C(=O)Nc2ccccn2)=C(O)c2sc(Cl)cc2S1(=O)=O`?
A: carcinogen call (rat, strain Sprague-Dawley, females, by gavage, site: any site (literature study), lesion: several types, types named in the paper, dosed 104 weeks, study length 104 weeks): negative (inactive); carcinogen call (rat, strain Sprague-Dawley, females, by gavage, site: kidney, lesion: one or several types, types not named, dosed 52 weeks, study length 52 weeks): negative (inactive); TD50 (rat, strain Sprague-Dawley, females, by gavage, site: liver, lesion: hepatocellular adenoma, dosed 104 weeks, study length 104 weeks): 13.2 mg/kg/day (inactive); carcinogen call (rat, strain Sprague-Dawley, males, by gavage, site: any site (literature study), lesion: several types, types named in the paper, dosed 104 weeks, study length 104 weeks): negative (inactive); carcinogen call (rat, strain Sprague-Dawley, males, by gavage, site: kidney, lesion: one or several types, types not named, dosed 52 weeks, study length 52 weeks): negative (inactive); carcinogen call (rat, strain Sprague-Dawley, males, by gavage, site: liver, lesion: several types, types named in the paper, dosed 104 weeks, study length 104 weeks): negative (inactive)
